What was measured:
Experiment in all cases: relative viability (nuclei count vs DMSO), 5 days (fraction); higher = more cells survive
[1] = system: NCI-H522
Procedure, shortened: (§1)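 Lung cancer cell lines were seeded in 1536-well plates and dosed by pin tool the next day, with either a single drug or a fixed anchor-drug dose combined with five library-drug doses (not always all listed) spaced in √10 steps. Five days later, one step fixed the cells and stained their nuclei (final 0.05% Triton X-100, 1% formaldehyde, 1 ug/ml Hoechst), and nuclei were counted on 4× images. Relative viability is the nuclei count in treated wells divided by the count in vehicle wells, and each value is the median of duplicate plates.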

[2] = system: NCI-H1944
Procedure, shortened: as §1

[3] = system: LOU-NH91
Procedure, shortened: as §1

[4] = system: NCI-H2170
Procedure, shortened: as §1

[5] = system: LCLC-103H
Procedure, shortened: as §1

[6] = system: HCC-44
Procedure, shortened: as §1

[7] = system: NCI-H358
Procedure, shortened: as §1

[8] = system: SK-MES-1
Procedure, shortened: as §1

[9] = system: NCI-H1993
Procedure, shortened: as §1

[10] = system: NCI-H2023
Procedure, shortened: as §1

[11] = system: COR-L 105
Procedure, shortened: as §1

[12] = system: LXF-289
Procedure, shortened: as §1

[13] = system: NCI-H520
Procedure, shortened: as §1

[14] = system: H3255
Procedure, shortened: as §1

[15] = system: HCC-827
Procedure, shortened: as §1

[16] = system: SW 900
Procedure, shortened: as §1

[17] = system: A-427
Procedure, shortened: as §1

[18] = system: NCI-H2087
Procedure, shortened: as §1

[19] = system: NCI-H1975
Procedure, shortened: as §1

[20] = system: NCI-H1915
Procedure, shortened: as §1

[21] = system: SW 1573
Procedure, shortened: as §1

[22] = system: NCI-H1793
Procedure, shortened: as §1

SMILES: Cc1cn(-c2cc(NC(=O)c3ccc(C)c(Nc4nccc(-c5cccnc5)n4)c3)cc(C(F)(F)F)c2)cn1 [Nilotinib] + Cc1cc(Nc2cc(N3CCN(C)CC3)nc(Sc3ccc(NC(=O)C4CC4)cc3)n2)n[nH]1 [Tozasertib] (partner 0.1 µM)
- relative viability ([1]; first compound 0.001 µM): 0.484
- relative viability ([1]; first compound 0.003162 µM): 0.605
- relative viability ([1]; first compound 0.01 µM): 0.521
- relative viability ([1]; first compound 0.03162 µM): 0.558
- relative viability ([1]; first compound 0.1 µM): 0.619
- relative viability ([2]; first compound 0.001 µM): 0.248
- relative viability ([2]; first compound 0.003162 µM): 0.3
- relative viability ([2]; first compound 0.01 µM): 0.248
- relative viability ([2]; first compound 0.03162 µM): 0.197
- relative viability ([3]; first compound 0.001 µM): 0.696
- relative viability ([3]; first compound 0.003162 µM): 0.708
- relative viability ([3]; first compound 0.01 µM): 0.781
- relative viability ([3]; first compound 0.03162 µM): 0.62
- relative viability ([3]; first compound 0.1 µM): 0.726
- relative viability ([4]; first compound 0.001 µM): 0.734
- relative viability ([4]; first compound 0.003162 µM): 0.77
- relative viability ([4]; first compound 0.01 µM): 0.795
- relative viability ([4]; first compound 0.03162 µM): 0.599
- relative viability ([4]; first compound 0.1 µM): 0.55
- relative viability ([5]; first compound 0.001 µM): 0.347
- relative viability ([5]; first compound 0.003162 µM): 0.425
- relative viability ([5]; first compound 0.01 µM): 0.452
- relative viability ([5]; first compound 0.03162 µM): 0.364
- relative viability ([5]; first compound 0.1 µM): 0.293
- relative viability ([6]; first compound 0.001 µM): 0.615
- relative viability ([6]; first compound 0.003162 µM): 0.842
- relative viability ([6]; first compound 0.01 µM): 0.948
- relative viability ([6]; first compound 0.03162 µM): 0.621
- relative viability ([6]; first compound 0.1 µM): 0.487
- relative viability ([7]; first compound 0.001 µM): 0.0908
- relative viability ([7]; first compound 0.003162 µM): 0.0985
- relative viability ([7]; first compound 0.01 µM): 0.0881
- relative viability ([7]; first compound 0.03162 µM): 0.101
- relative viability ([7]; first compound 0.1 µM): 0.116
- relative viability ([8]; first compound 0.001 µM): 0.804
- relative viability ([8]; first compound 0.003162 µM): 0.939
- relative viability ([8]; first compound 0.01 µM): 1.05
- relative viability ([8]; first compound 0.03162 µM): 0.572
- relative viability ([8]; first compound 0.1 µM): 0.524
- relative viability ([9]; first compound 0.001 µM): 0.611
- relative viability ([9]; first compound 0.003162 µM): 0.668
- relative viability ([9]; first compound 0.01 µM): 0.622
- relative viability ([9]; first compound 0.03162 µM): 0.586
- relative viability ([9]; first compound 0.1 µM): 0.631
- relative viability ([10]; first compound 0.001 µM): 0.192
- relative viability ([10]; first compound 0.003162 µM): 0.225
- relative viability ([10]; first compound 0.01 µM): 0.224
- relative viability ([10]; first compound 0.03162 µM): 0.159
- relative viability ([10]; first compound 0.1 µM): 0.183
- relative viability ([11]; first compound 0.001 µM): 0.361
- relative viability ([11]; first compound 0.003162 µM): 0.329
- relative viability ([11]; first compound 0.01 µM): 0.497
- relative viability ([11]; first compound 0.03162 µM): 0.329
- relative viability ([11]; first compound 0.1 µM): 0.317
- relative viability ([12]; first compound 0.001 µM): 0.254
- relative viability ([12]; first compound 0.003162 µM): 0.189
- relative viability ([12]; first compound 0.01 µM): 0.222
- relative viability ([12]; first compound 0.03162 µM): 0.127
- relative viability ([12]; first compound 0.1 µM): 0.153
- relative viability ([13]; first compound 0.001 µM): 0.486
- relative viability ([13]; first compound 0.003162 µM): 0.46
- relative viability ([13]; first compound 0.01 µM): 0.428
- relative viability ([13]; first compound 0.03162 µM): 0.462
- relative viability ([13]; first compound 0.1 µM): 0.386
- relative viability ([14]; first compound 0.001 µM): 0.532
- relative viability ([14]; first compound 0.003162 µM): 0.516
- relative viability ([14]; first compound 0.03162 µM): 0.48
- relative viability ([14]; first compound 0.1 µM): 0.717
- relative viability ([15]; first compound 0.003162 µM): 0.521
- relative viability ([15]; first compound 0.01 µM): 0.529
- relative viability ([15]; first compound 0.03162 µM): 0.39
- relative viability ([15]; first compound 0.1 µM): 0.379
- relative viability ([16]; first compound 0.001 µM): 0.324
- relative viability ([16]; first compound 0.003162 µM): 0.51
- relative viability ([16]; first compound 0.01 µM): 0.389
- relative viability ([16]; first compound 0.03162 µM): 0.34
- relative viability ([16]; first compound 0.1 µM): 0.262
- relative viability ([17]; first compound 0.001 µM): 0.168
- relative viability ([17]; first compound 0.003162 µM): 0.184
- relative viability ([17]; first compound 0.01 µM): 0.149
- relative viability ([17]; first compound 0.03162 µM): 0.167
- relative viability ([17]; first compound 0.1 µM): 0.168
- relative viability ([18]; first compound 0.001 µM): 0.195
- relative viability ([18]; first compound 0.003162 µM): 0.24
- relative viability ([18]; first compound 0.01 µM): 0.202
- relative viability ([18]; first compound 0.03162 µM): 0.19
- relative viability ([18]; first compound 0.1 µM): 0.197
- relative viability ([19]; first compound 0.001 µM): 0.212
- relative viability ([19]; first compound 0.003162 µM): 0.224
- relative viability ([19]; first compound 0.01 µM): 0.205
- relative viability ([19]; first compound 0.03162 µM): 0.154
- relative viability ([19]; first compound 0.1 µM): 0.218
- relative viability ([20]; first compound 0.001 µM): 0.366
- relative viability ([20]; first compound 0.003162 µM): 0.484
- relative viability ([20]; first compound 0.01 µM): 0.457
- relative viability ([20]; first compound 0.03162 µM): 0.32
- relative viability ([20]; first compound 0.1 µM): 0.311
- relative viability ([21]; first compound 0.001 µM): 0.194
- relative viability ([21]; first compound 0.003162 µM): 0.165
- relative viability ([21]; first compound 0.01 µM): 0.211
- relative viability ([21]; first compound 0.03162 µM): 0.173
- relative viability ([21]; first compound 0.1 µM): 0.15
- relative viability ([22]; first compound 0.001 µM): 0.248
- relative viability ([22]; first compound 0.003162 µM): 0.298
- relative viability ([22]; first compound 0.01 µM): 0.3
- relative viability ([22]; first compound 0.03162 µM): 0.306
- relative viability ([22]; first compound 0.1 µM): 0.296

From the supplement of paper PMC10307832
